Assays:
Settings in all cases: 48 h
NOMO1 [1] = assay: AUC of viability dose-response curve (% viability x log10 dose units); higher = less sensitive
Procedure, shortened: (§1)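 Seeding of medium-adapted leukemia cells was at 500 or 1000 cells/well in 1536-well plates, followed by 48 h at 37°C with library compounds in DMSO at 11 threefold doses from 47 μM to 0.79 nM. CellTiter-Glo One luminescence was normalised per plate to DMSO and cell-free wells and fitted as a four-parameter log-logistic function of log10 dose. Area under the curve was integrated by trapezoidal rule, with curves exceeding full viability scaled and curves failing quality control removed.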

SEM cells [2] = assay: cell viability relative to DMSO control; higher = less cytotoxic
Procedure, shortened: (§2)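 Library compounds in DMSO were pin-dosed in an 11-point threefold series (47 μM to 0.79 nM) onto leukemia cells in 1536-well plates (5 μl). Plates held 500 cells/well of NOMO1 or SEM or 1000 cells/well of P12-Ichikawa, each adapted for at least four passages in each medium. Luminescence was read with CellTiter-Glo One after 48 h at 37°C. Viability means the per-plate percentage relative to DMSO wells, using cell-free wells as background.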

P12-Ichikawa [3] = assay: as above
Procedure, shortened: as §2

NOMO1 [4] = assay: as above
Procedure, shortened: as §2

SEM cells [5] = assay: AUC of viability dose-response curve (% viability x log10 dose units); higher = less sensitive
Procedure, shortened: as §1

P12-Ichikawa [6] = assay: as above
Procedure, shortened: as §1

CC(C)OC(=O)OCOP(=O)(CO[C@H](C)Cn1cnc2c(N)ncnc21)OCOC(=O)OC(C)C.O=C(O)C=CC(=O)O
NOMO1 [1]
Settings	AUC of viability dose-response curve
HPLM + 10% dialyzed FBS	446
RPMI 5 mM glucose + 10% FBS	456
RPMI 5 mM glucose + 10% dialyzed FBS	448

cell viability [%]
Settings	NOMO1 [4]	P12-Ichikawa [3]	SEM cells [2]
HPLM + 10% dialyzed FBS, 0.000781 µM	98.7	110	85
HPLM + 10% dialyzed FBS, 0.00234 µM	120	120	99.6
HPLM + 10% dialyzed FBS, 0.00702 µM	120	73.1	28.3
HPLM + 10% dialyzed FBS, 0.0211 µM	105	125	121
HPLM + 10% dialyzed FBS, 0.0632 µM	133	127	105
HPLM + 10% dialyzed FBS, 0.19 µM	129	125	114
HPLM + 10% dialyzed FBS, 0.569 µM	126	125	114
HPLM + 10% dialyzed FBS, 1.71 µM	123	128	120
HPLM + 10% dialyzed FBS, 5.12 µM	104	129	98.2
HPLM + 10% dialyzed FBS, 15.4 µM	89.6	126	105
HPLM + 10% dialyzed FBS, 46.1 µM	53.1	106	35.1
RPMI 5 mM glucose + 10% FBS, 0.000781 µM	95.8	105	108
RPMI 5 mM glucose + 10% FBS, 0.00234 µM	121	132	113
RPMI 5 mM glucose + 10% FBS, 0.00702 µM	125	70.9	11.7
RPMI 5 mM glucose + 10% FBS, 0.0211 µM	116	122	119
RPMI 5 mM glucose + 10% FBS, 0.0632 µM	115	124	119
RPMI 5 mM glucose + 10% FBS, 0.19 µM	128	122	124
RPMI 5 mM glucose + 10% FBS, 0.569 µM	109	135	115
RPMI 5 mM glucose + 10% FBS, 1.71 µM	118	129	115
RPMI 5 mM glucose + 10% FBS, 5.12 µM	115	129	109
RPMI 5 mM glucose + 10% FBS, 15.4 µM	103	115	94.8
RPMI 5 mM glucose + 10% FBS, 46.1 µM	38.6	4.8	76.1
RPMI 5 mM glucose + 10% dialyzed FBS, 0.000781 µM	117	97.6	77.3
RPMI 5 mM glucose + 10% dialyzed FBS, 0.00234 µM	117	109	107
RPMI 5 mM glucose + 10% dialyzed FBS, 0.00702 µM	112	85.9	23.8
RPMI 5 mM glucose + 10% dialyzed FBS, 0.0211 µM	117	115	102
RPMI 5 mM glucose + 10% dialyzed FBS, 0.0632 µM	124	122	113
RPMI 5 mM glucose + 10% dialyzed FBS, 0.19 µM	122	124	104
RPMI 5 mM glucose + 10% dialyzed FBS, 0.569 µM	128	124	97.9
RPMI 5 mM glucose + 10% dialyzed FBS, 1.71 µM	124	124	124
RPMI 5 mM glucose + 10% dialyzed FBS, 5.12 µM	114	128	104
RPMI 5 mM glucose + 10% dialyzed FBS, 15.4 µM	102	121	102
RPMI 5 mM glucose + 10% dialyzed FBS, 46.1 µM	15.1	95.2	32.2

Fc1ccc(Cl)cc1-c1nc(Nc2ccncc2)c2nccnc2n1
AUC of viability dose-response curve
Settings	NOMO1 [1]	P12-Ichikawa [6]	SEM cells [5]
HPLM + 10% dialyzed FBS	461	463	453
RPMI 5 mM glucose + 10% FBS	438	457	464
RPMI 5 mM glucose + 10% dialyzed FBS	442	451	467

O=C(Nc1cccc(Cl)c1)Nc1ncc(CCNc2ncnc3ccsc23)s1
AUC of viability dose-response curve
Settings	NOMO1 [1]	P12-Ichikawa [6]	SEM cells [5]
HPLM + 10% dialyzed FBS	362	290	301
RPMI 5 mM glucose + 10% FBS	374	306	272
RPMI 5 mM glucose + 10% dialyzed FBS	385	301	274

CC(C)N(CCNC(=O)CN1CCCC1=O)C(C)C
AUC of viability dose-response curve
Settings	NOMO1 [1]	P12-Ichikawa [6]	SEM cells [5]
HPLM + 10% dialyzed FBS	430	460	477
RPMI 5 mM glucose + 10% FBS	456	453	460
RPMI 5 mM glucose + 10% dialyzed FBS	461	435	476

CCCNC(=O)[C@H]1O[C@@H]1C(=O)N[C@H](C(=O)N1CCC[C@H]1C(=O)OC)C(C)CC (some centres not stated)
AUC of viability dose-response curve
Settings	NOMO1 [1]	P12-Ichikawa [6]	SEM cells [5]
HPLM + 10% dialyzed FBS	444	446	439
RPMI 5 mM glucose + 10% FBS	421	416	420
RPMI 5 mM glucose + 10% dialyzed FBS	449	424	433

C[C@@H]\1COC(=N1)\NC2=CC3=C(C=C2)N=CN=C3NC4=CC(=C(OCC5=NC=CS5)C=C4)Cl
AUC of viability dose-response curve
Settings	NOMO1 [1]	P12-Ichikawa [6]	SEM cells [5]
HPLM + 10% dialyzed FBS	454	455	461
RPMI 5 mM glucose + 10% FBS	447	447	457
RPMI 5 mM glucose + 10% dialyzed FBS	463	449	457
